Reference: patent US12122752B1, “5-(2,4,5-tris(4-chlorophenyl)-1H-imidazol-1-yl)pentanoic acid as an antimicrobial compound” (KING FAISAL UNIVERSITY, priority 2023, dated 2024)

Key:
Assay type in all cases: cell-based
[1] = system: Chrysosporium keratinophilum; test: Agar plate disc-diffusion, antifungal activity by inhibition zone; conditions: Sabouraud's dextrose agar, 72 hours
Procedure: (§1) The agar plate disc-diffusion method was applied. Sterilized filter papers (6 mm in diameter) were wetted with 10 μL of a solution of 5-(2,4,5-tris(4-chlorophenyl)-1H-imidazol-1-yl)pentanoic acid (V) to be tested, containing 10 mg/mL in DMSO, and the discs were allowed to air dry. The discs were then placed onto the surface of agar plates (nutrient agar for bacteria and Sabouraud's dextrose agar for fungi) seeded with the test organism. Each plate contained 15 mL of the agar medium, previously seeded with 0.2 mL of the broth culture of each organism pregrown for 18 hours. The plates were incubated at 37° C. for 48 hours, and 72 hours for fungi. The inhibition zones was measured in mm. Discs impregnated with DMSO were used as a control, and its inhibition zone was subtracted from the tested compound actual inhibition zone.
(§2) Their antibacterial screened against gram positive bacteria namely Bacillus cereus and Staphylococcus aureus and gram-negative bacterial strains namely Pseudomonas aeruginosa and Escherichia coli, while their antifungal activity screened against Aspergillus flavus and Chrysosporium keratinophilum as shown in Table 1 and 2.

[2] = system: Aspergillus flavus; test: as above; conditions: Sabouraud's dextrose agar, 72 hours
Procedure: as §1, §2

[3] = system: Pseudomonas aeruginosa; test: Agar plate disc-diffusion, antibacterial activity by inhibition zone; conditions: gram negative, nutrient agar, 37° C., 48 hours
Procedure: as §1, with “Sterilized filter papers (6 mm in diameter) were wetted with 10 μL of a solution of 5-(2,4,5-tris(4-chlorophenyl)-1H-imidazol-1-yl)pentanoic acid (V) to be tested, containing 10 mg/mL in DMSO, and the discs were allowed to air dry.” left out
as §2

[4] = system: Bacillus Cereus; test: as above; conditions: gram positive, nutrient agar, 37° C., 48 hours
Procedure: as §1, with “Sterilized filter papers (6 mm in diameter) were wetted with 10 μL of a solution of 5-(2,4,5-tris(4-chlorophenyl)-1H-imidazol-1-yl)pentanoic acid (V) to be tested, containing 10 mg/mL in DMSO, and the discs were allowed to air dry.” left out
as §2

[5] = system: Escherichia coli; test: as above; conditions: gram negative, nutrient agar, 37° C., 48 hours
Procedure: as §1, with “Sterilized filter papers (6 mm in diameter) were wetted with 10 μL of a solution of 5-(2,4,5-tris(4-chlorophenyl)-1H-imidazol-1-yl)pentanoic acid (V) to be tested, containing 10 mg/mL in DMSO, and the discs were allowed to air dry.” left out
as §2

[6] = system: Staphylococcus aureus; test: as above; conditions: gram positive, nutrient agar, 37° C., 48 hours
Procedure: as §1, with “Sterilized filter papers (6 mm in diameter) were wetted with 10 μL of a solution of 5-(2,4,5-tris(4-chlorophenyl)-1H-imidazol-1-yl)pentanoic acid (V) to be tested, containing 10 mg/mL in DMSO, and the discs were allowed to air dry.” left out
as §2

[7] = system: different microbes; test: Antimicrobial testing, overall statement; conditions: summary in words of Tables 1 and 2
Procedure: as §1, §2

[8] = A = concentration of comp. = 10,000 μL
[9] = B = concentration of comp. = 30,000 μL
[10] = C = concentration of comp. = 50,000 μL

Structure (SMILES) | inhibition zone [1, 8] [mm] | inhibition zone [1, 9] [mm] | inhibition zone [1, 10] [mm] | inhibition zone [2, 8] [mm] | inhibition zone [2, 9] [mm] | inhibition zone [2, 10] [mm] | inhibition zone [3, 8] [mm] | inhibition zone [3, 9] [mm] | inhibition zone [3, 10] [mm] | inhibition zone [4, 8] [mm] | inhibition zone [4, 9] [mm] | inhibition zone [4, 10] [mm] | inhibition zone [5, 8] [mm] | inhibition zone [5, 9] [mm] | inhibition zone [5, 10] [mm] | inhibition zone [6, 8] [mm] | inhibition zone [6, 9] [mm] | inhibition zone [6, 10] [mm] | antimicrobials activities against different microbes [7]
O=C(O)c1cn(C2CC2)c2cc(N3CCNCC3)c(F)cc2c1=O [Cip., reference compound] | 29 | 30 | 53 | 29 | 32 | 42 | 29 | 30 | 53 | 29 | 31 | 42 | 30 | 39 | 60 | 42 | 44 | 53 | –
O=C(O)CCCCn1c(-c2ccc(Cl)cc2)nc(-c2ccc(Cl)cc2)c1-c1ccc(Cl)cc1 [V, 5-(2,4,5-tris(4-chlorophenyl)-1H-imidazol-1-yl)pentanoic acid] | 25 | 28 | 46 | 17 | 22 | 31 | 25 | 30 | 43 | 23 | 25 | 37 | 27 | 35 | 50 | 18 | 22 | 33 | excellent
